The text below walks through data of PMC5503984, “Characterisation of preproendothelin-1 derived peptides identifies Endothelin-Like Domain Peptide as a modulator of Endothelin-1” (Scientific Reports, 2017).

The nature of data set [1]: Clearance of proET-1 peptides after i.v. bolus in anaesthetised rats. Type of data set: in vivo, rat. The protocol: To examine whether circulating half-lives influenced plasma levels of proET-1 peptides clearance rates were investigated in anaesthetised rats. […] Based on a circulating blood volume of 7.2 ± 0.3 ml per 100 g body weight, a mean weight of 345 ± 6 g and hematocrit of 40–60%, the hypothetical maximum plasma concentrations were 23–35 pmol/ml. However, the levels of NT-proET-1, ELDP and CT-proET-1 30 s after injection were 0.29 ± 0.02, 3.65 ± 0.23, and 11.74 ± 0.64 pmol/ml, respectively. Relative to estimates for dilution in circulating blood, these values represent ≈1%, 10–16%, and 34–51% of administered peptide for NT-proET-1, ELDP and CT-proET-1. Moreover, NT-proET-1 was almost completely cleared from the circulation in <5 min (estimated initial t½ < 20 s).
Figure 5 Comparison of clearance rates of NT-proET-1, ELDP and CT-proET-1 in anaesthetised rats. A bolus dose containing 1 nmol/kg of each proET-1 peptide as a combined solution prepared in 0.9% saline/0.1% BSA was administered i.v. and heparinised arterial blood samples (0.5 ml) were collected at 0.5, 1, 2, 5, 10, 20 and 40 min after administration of proET-1 peptides. NT-proET-1 (mauve circles), ELDP (red circles) and CT-proET-1 (blue circles) were measured by magnetic bead-based multiplex assays using Luminex methodology (values are mean ± SD, except where SD is less than the symbol size).
A multiplexed immunoassay system was used for simultaneous measurement of NT-proET-1, ELDP and CT-proET-1 in small volumes of rat plasma. Capture antibodies were conjugated to magnetic beads (region 45 – NT-proET-1, region 36 – ELDP, and region 27 – CT-proET-1) following standard protocols (Luminex Corporation). For assay capture antibody-coated magnetic beads were diluted as a premixed combination (10 µl/well) and incubated overnight at 4 °C on an orbital plate mixer with plasma (15 µl) and assay buffer (135 µl). For detection, beads were washed using a ring magnet plate washer before adding 25 µl of combined biotinylated detection antibodies and incubating for 2 h at room temperature on an orbital plate mixer.
(§1) All experiments were conducted according to the Animals (Scientific Procedures) Act 1986, UK, and approved by the UK Home Office. Clearance rates of proET-1 peptides and blood pressure effects of ELDP were determined in male Wistar rats (Charles River) anaesthetised with sodium thiopentone (120 mg/kg i.p.). Peptides were administered i.v. via a polyethylene catheter in the left femoral vein. Blood samples (0.5 ml) were collected from a catheter in the left carotid artery into chilled 1.5 ml microcentrifuge tubes containing 50 U/5 µl of heparin. Samples were centrifuged at 12,000 rpm for 2 min at 4 °C. Plasma (50 µl aliquots) samples were stored at −80 °C for subsequent analyses. Blood pressure and heart rate were recorded from the left carotid artery via a polyethylene catheter using Labchart 7.1 (AD Instruments Ltd).

The subject of a further data set is anaesthetised rats. Kind of data set: Mean arterial blood pressure in anaesthetised rats. Type of data set: in vivo, rat. The protocol:
Figure 7 Cardiovascular effects of ELDP. […] (B) vasoconstrictor response to ET-1 (1 × 10^−9 M) alone (n = 8) or after pre-incubation with ELDP[162-amide] (10 × 10^−9 M, n = 10); P < 0.002; Student’s t-test. (C) Change in mean arterial blood pressure in anaesthetised rats following ET-1 (0.3 nmol/kg, i.v.) alone (white circles, n = 6) or 15 min after ELDP (3 nmol/kg i.v.) (red circles, n = 6). […] Results are mean ± s.e.m.
as §1

[2] abbreviates: rat, 1 nmol/kg i.v. bolus, plasma sampled 0.5–40 min, two-phase clearance.

“ALENLLPTKATDRENRCQCASQKDKKCWNFCQAGKELRAEDIMEKDWNNHKKGKDCSKLGKKCIYQQLVRGRKI (disulfide (positions not given here)) [ELDP]”: in data set [1] (anaesthetised male Wistar rats, bolus 1 nmol/kg i.v. of each peptide as a combined solution in 0.9% saline/0.1% BSA, arterial plasma, Luminex multiplex immunoassay, mean ± SD), the “plasma level 30 s after injection” value amounted to 3.65 ± 0.23 nM. Moreover, in data set [1] (setting [2]), the “estimated t½, phase 1” value is reported as 0.5 min and the “estimated t½, phase 2” value is 5.7 min. For the same sequence, the “plasma level at 30 s as % of administered peptide, relative to estimates for dilution in circulating blood” value in data set [1] (rat, 1 nmol/kg i.v., hypothetical maximum plasma concentration 23–35 pmol/ml) is recorded as 10–16%. Moreover, in the data set on anaesthetised rats (3 nmol/kg i.v., anaesthetised rats), the “effect on blood pressure, peptide alone” value is listed as “no effect”. The “magnitude of the initial pressor response to ET-1” value in the data set on anaesthetised rats (ET-1 0.3 nmol/kg i.v. given 15 min after ELDP 3 nmol/kg i.v., n = 6 per group) is reported as “without changing”. The “duration of the pressor response to ET-1” value in the data set on anaesthetised rats (ET-1 0.3 nmol/kg i.v. given 15 min after ELDP 3 nmol/kg i.v., n = 6 per group, P < 0.02) is on record as “significantly increased”.
